Structures are written as SMILES.

Holding throughout (assay type): in vivo
One test concerns Blattella germanica. As to the kind of experiment: Test Example 4: filter paper with sucrose bait, Blattella germanica imagoes. Conditions: 144 h, 0.7 ml on filter paper, two male imagoes, after 6 days, read-out: rate of dead pests. On the procedure:
The formulation obtained according to Formulation Example 5 using the present invention compounds (1), (4), (8), (9), (11), (12), (13) and (14) respectively, was diluted with water so that the active ingredient concentration came to 500 ppm to prepare a pesticidal solution for test.
On the bottom of a polyethylene cup having a diameter of 5.5 cm, a filter paper having the same diameter was laid, and 0.7 ml of the above pesticidal solution for test was added dropwise on the filter paper, followed by putting 30 mg of sucrose on it uniformly as a bait. Two male Blattella germanica imagoes were set free in the polyethylene cup and covered it with a lid. After 6 days, the number of surviving Blattella germanica was examined and the rate of dead pests was calculated.

A further test relates to Culex pipiens pallens. Nature of the test: Test Example 5: larvae in treated water, Culex pipiens pallens. To be noted: 24 h, active ingredient concentration 3.5 ppm in water, twenty last-instar larvae, after one day, read-out: rate of dead pests. On the procedure:
The formulation obtained according to Formulation Example 5 using the present invention compounds (3), (4), (8), (9), (10), (11), (12), (13), (14) and (15) respectively, was diluted with water so that the active ingredient concentration came to 500 ppm to prepare a pesticidal solution for test. 0.7 ml of above pesticidal solution for test was added to 100 ml of ion exchanged water (active ingredient concentration: 3.5 ppm). Twenty last-instar larvae of Culex pipiens pallens were set free in the solution. After one day, the number of surviving Culex pipiens pallens was examined and the rate of dead pests was calculated.

In a further test the test system is Musca domestics. Nature of the test: Test Example 3: filter paper with sucrose bait, Musca domestica imagoes. To be noted: 0.7 ml on filter paper, ten female imagoes, after 24 hours, read-out: rate of dead pests. On the procedure:
The formulation obtained according to Formulation Example 5 using the present invention compounds (1), (2), (4), (8), (9), (10), (11), (13), (14) and (15) respectively, was diluted with water so that the active ingredient concentration came to 500 ppm to prepare a pesticidal solution for test.
On the bottom of a polyethylene cup having a diameter of 5.5 cm, a filter paper having the same diameter was laid, and 0.7 ml of the above pesticidal solution for test was added dropwise on the filter paper, followed by putting 30 mg of sucrose on it uniformly as a bait. Ten female Musca domestics imagoes were set free in the polyethylene cup and covered it with a lid. After 24 hours, the number of surviving Musca domestics was examined and the rate of dead pests was calculated.

Turning to `N#Cc1ccc(CC(C#N)(C#N)CCC(F)(F)F)cn1` [Compound 12, 2-((6-cyano-3-pyridyl)methyl)-2-(3,3,3-trifluoropropyl)malononitrile], the pest or weed control at 500 ppm in the test with Blattella germanica came out at 100%. For the same molecule, the pest or weed control at 3.5 ppm in the test with Culex pipiens pallens is 100%.
Take `N#CC(C#N)(CCC(F)=C(F)F)Cc1ccc(Cl)nc1` [Compound 3, 2-((6-Chloro-3-pyridyl)methyl)-2-(3,4,4-trifluoro-3-butenyl)malononitrile]: the pest or weed control at 3.5 ppm with Culex pipiens pallens came out at 100%.
Turning to `N#CC(C#N)(CCC(F)(F)F)Cc1ccc(Br)nc1` [Compound 10, 2-((6-bromo-3-pyridyl)methyl)-2-(3,3,3-trifluoropropyl)malononitrile], the pest or weed control at 500 ppm in the test on Musca domestics is at least 90%. In addition, in the test with Culex pipiens pallens, the pest or weed control at 3.5 ppm came out at 100%.
Regarding `N#CC(C#N)(CCC(F)(F)F)Cc1ccc(F)nc1` [Compound 13, 2-((6-fluoro-3-pyridyl)methyl)-2-(3,3,3-trifluoropropyl)malononitrile], the pest or weed control at 500 ppm is at least 90% in the test on Musca domestics and 100% with Blattella germanica. Further, the pest or weed control at 3.5 ppm in the test on Culex pipiens pallens was 100%.
Take `C#Cc1ccc(CC(C#N)(C#N)CCC(F)(F)F)cn1` [Compound 11, 2-((6-ethynyl-3-pyridyl)methyl)-2-(3,3,3-trifluoropropyl)malononitrile]: the pest or weed control at 500 ppm in the test with Musca domestics is at least 90%; in the test on Blattella germanica, 100%. Moreover, in the test with Culex pipiens pallens, the pest or weed control at 3.5 ppm was determined as 100%.
Take `N#CC(C#N)(CCC(F)(F)F)Cc1ccc(Cl)nc1` [Compound 4, 2-((6-Chloro-3-pyridyl)methyl)-2-(3,3,3-trifluoropropyl)malononitrile]: the pest or weed control at 500 ppm is at least 90% in the test with Musca domestics and 100% in the test with Blattella germanica. For the same molecule, the pest or weed control at 3.5 ppm in the test with Culex pipiens pallens is 100%.
Take `N#CC(C#N)(CCC(F)(F)F)Cc1ccc(C(F)(F)F)nc1` [Compound 9, 2-((6-(trifluoromethyl)-3-pyridyl)methyl)-2-(3,3,3-trifluoropropyl)malononitrile]: the pest or weed control at 500 ppm in the test on Musca domestics was at least 90%; with Blattella germanica, 100%. Further, the pest or weed control at 3.5 ppm with Culex pipiens pallens is 100%.
As to `C=CCC(C#N)(C#N)C(C#N)c1ccc(Cl)nc1` (stereo not shown) [Compound 2, 1-(6-Chloro-3-pyridyl)-1,2,2-tricyano-4-pentene], the pest or weed control at 500 ppm with Musca domestics was at least 90%.
Regarding `N#CC(C#N)(CCC(F)(F)F)Cc1cccc(Cl)n1` [Compound 8, 2-((6-chloro-2-pyridyl)methyl)-2-(3,3,3-trifluoropropyl)malononitrile], the pest or weed control at 500 ppm with Musca domestics was at least 90%; in the test with Blattella germanica it was 100%. The pest or weed control at 3.5 ppm in the test with Culex pipiens pallens was determined as 100%.
As to `C=CCC(C#N)(C#N)Cc1ccc(Cl)nc1` [Compound 1, 2-allyl-2-((6-Chloro-3-pyridyl)methyl)malononitrile], the pest or weed control at 500 ppm was at least 90% with Musca domestics and 100% in the test on Blattella germanica.
As for `N#CC(C#N)(CCC(F)(F)F)Cc1cnc(Cl)c(Cl)c1` [Compound 15, 2-((5,6-dichloro-3-pyridyl)methyl)-2-(3,3,3-trifluoropropyl)malononitrile], the pest or weed control at 500 ppm with Musca domestics was at least 90%. Further, the pest or weed control at 3.5 ppm with Culex pipiens pallens is 100%.
Take `N#CC(C#N)(CCC(F)(F)F)Cc1cccc(Br)n1` [Compound 14, 2-((6-bromo-2-pyridyl)methyl)-2-(3,3,3-trifluoropropyl)malononitrile]: the pest or weed control at 500 ppm was at least 90% in the test on Musca domestics and 100% with Blattella germanica. Also, the pest or weed control at 3.5 ppm with Culex pipiens pallens was 100%.

The record behind these values is US20050176784A1, “Malononitrile compounds and their use as pesticides” (priority 2002, published 2005).
